Experimental data taken from patent US20010021705A1, “Disodium alendronate formulations” (MERCK & CO., Inc., priority 1995, published 2001).
Where a name gives a salt, the structure may show the parent alone. Read-outs that look alike come from different tables or passages of the source.

Conditions: for aqueous pH: concentration not stated (summary)

Row | solution pH (at 8 mg/ml) | aqueous pH | solution pH (at 50 mg/ml) | aqueous pH (Disodium Salt Monohydrate) | Structure (SMILES)
1 | 2.2 | about 2.2 |  |  | NCCCC(O)(P(=O)(O)O)P(=O)(O)O [free acid, 4-amino-1-hydroxybutylidene-1,1-bisphosphonic acid]
2 |  |  | 8.7 | about 8.7 | NCCCC(O)(P(=O)(O)O)P(=O)(O)O [disodium salt, 4-Amino-1-Hydroxy-Butylidene-1,1-Bisphosphonic Acid Disodium Salt Monohydrate]
